Patent US20220145343A1 (priority 2019, published 2022)
Where “and” joins values, the source holds several entries; their conditions need not be identical. Equal entries are not always repeated. Marks after values point to notes of the source that are not given here.

Experiments:
NmCSS and PmAldolase = type: biochemical, Neisseria meningitidis; Pasteurella multocida
[1] = target: NmSiaDW sialyltransferase activity (Neisseria meningitidis, UniProt O33390); conditions: apparent; varying acceptor, 10 mM CMP-Neu5Ac, pH 8.0, 30° C.
[2] = test system: α2-6-sialyltransferase activity of NmSiaDW; type: biochemical, Neisseria meningitidis
[3] = test system: α1-4-galactosyltransferase activity of NmSiaDW; type: biochemical, Neisseria meningitidis
[4] = test system: α1-4-galactosyltransferase activity of NmSiaDW; assay: Donor substrate specificity for the α1-4-galactosyltransferase activity of NmSiaDW using different sugar nucleotides (acceptor S3); type: biochemical, Neisseria meningitidis; conditions: for Percentage conversion (%): acceptor S3 1 mM, donor 2 mM, 30° C.
Description: Galactosyltransferase activity was assayed in reaction buffer (100 mM MES, pH 6.5, 10 mM MgCl2) in the presence of 2 mM UDP-sugars and 1 mM Neu5Acα2-6Galα1-4Neu5AcαProNHCbz in a total volume of 10 μL. Reaction was performed at 30° C. with 0.11 μg NmSiaDW for 10 min or 6.6 μg NmSiaDW for 10 h. Reaction was quenched by addition of 10 μL pre-chilled ethanol and incubated at −20° C. for 30 min. […] GDP-Fuc and CMP-Neu5Ac were also included.
Samples were analyzed using UPLC with EcilpsePlusC18 column or AdvancBio Glycan Map column, Agilent. The samples were further analyzed by electrospray ionization (ESI)-HRMS using a Thermo Electron LTQ-Orbitrap Hybrid MS in a negative mode.

NmCSS = NmCSS (Neisseria meningitidis, UniProt P0A0Z8); type: biochemical; conditions: step 1 in the presence of NmCSS (0.75 mg/mL) for 10 h
[5] = target: NmSiaDW galactosyltransferase activity (Neisseria meningitidis, UniProt O33390); conditions: apparent; varying acceptor, 2 mM UDP-Gal, pH 6.5, 30° C.
Sequence of NmSiaDW galactosyltransferase activity (O33390 1-1037): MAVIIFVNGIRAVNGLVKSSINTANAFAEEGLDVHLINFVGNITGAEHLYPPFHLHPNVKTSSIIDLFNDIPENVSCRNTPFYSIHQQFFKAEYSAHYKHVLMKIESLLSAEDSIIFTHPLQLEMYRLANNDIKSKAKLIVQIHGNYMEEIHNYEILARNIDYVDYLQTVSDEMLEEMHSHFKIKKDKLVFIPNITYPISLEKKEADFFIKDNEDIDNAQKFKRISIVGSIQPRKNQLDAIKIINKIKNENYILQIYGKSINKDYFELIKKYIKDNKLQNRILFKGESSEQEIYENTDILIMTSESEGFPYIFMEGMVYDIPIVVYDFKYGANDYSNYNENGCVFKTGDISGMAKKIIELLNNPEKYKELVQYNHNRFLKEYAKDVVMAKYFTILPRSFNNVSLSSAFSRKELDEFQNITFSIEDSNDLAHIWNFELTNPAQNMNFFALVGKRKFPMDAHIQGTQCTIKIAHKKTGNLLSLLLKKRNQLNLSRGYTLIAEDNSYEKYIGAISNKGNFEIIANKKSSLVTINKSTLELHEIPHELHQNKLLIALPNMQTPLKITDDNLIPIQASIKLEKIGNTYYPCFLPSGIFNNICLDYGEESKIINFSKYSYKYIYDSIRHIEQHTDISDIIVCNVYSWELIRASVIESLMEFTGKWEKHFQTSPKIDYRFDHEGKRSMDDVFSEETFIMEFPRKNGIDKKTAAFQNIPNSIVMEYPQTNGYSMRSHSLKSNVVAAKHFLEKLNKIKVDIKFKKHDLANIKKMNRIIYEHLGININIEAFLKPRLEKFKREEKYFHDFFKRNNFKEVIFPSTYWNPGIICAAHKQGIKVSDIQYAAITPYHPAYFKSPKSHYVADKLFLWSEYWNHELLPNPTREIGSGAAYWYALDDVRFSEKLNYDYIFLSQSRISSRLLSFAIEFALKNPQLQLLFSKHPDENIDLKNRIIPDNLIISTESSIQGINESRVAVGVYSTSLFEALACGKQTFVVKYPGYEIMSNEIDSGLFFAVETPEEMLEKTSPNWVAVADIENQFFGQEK

Sequence of NmSiaDW sialyltransferase activity (O33390 1-1037): as above
Sequence of NmCSS (P0A0Z8 whole entry): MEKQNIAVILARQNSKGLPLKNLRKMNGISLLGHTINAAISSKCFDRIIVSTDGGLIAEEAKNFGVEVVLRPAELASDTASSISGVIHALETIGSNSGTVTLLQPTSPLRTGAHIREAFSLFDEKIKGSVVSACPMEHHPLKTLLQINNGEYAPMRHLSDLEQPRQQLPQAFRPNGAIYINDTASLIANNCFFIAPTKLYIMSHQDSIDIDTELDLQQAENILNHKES

CC(=O)N[C@@H]1C(O)O[C@H](CO)[C@@H](N=[N+]=[N-])[C@@H]1O (stereo partly shown) [ManNAc4N3, 4-azido-4-deoxy-N-acetylmannosamine] was tested, and the “Percentage conversion (%) CMP-Sialic acid” value (NmCSS and PmAldolase) was 90 ± 3 ^b %.
For CC(=O)N[C@H]1[C@H]([C@H](O)[C@H](O)CO)O[C@@](OC[C@H]2O[C@H](O[C@H]3C[C@](OC[C@H]4O[C@H](O[C@H]5C[C@](OCCCNC(=O)OCc6ccccc6)(C(=O)O)O[C@@H]([C@H](O)[C@H](O)CO)[C@@H]5NC(C)=O)[C@H](O)[C@@H](O)[C@H]4O)(C(=O)O)O[C@@H]([C@H](O)[C@H](O)CO)[C@@H]3NC(C)=O)[C@H](O)[C@@H](O)[C@H]2O)(C(=O)O)C[C@@H]1O[C@H]1O[C@H](CO)[C@H](O)[C@H](O)[C@H]1O [G6, Galα1(-4Neu5Acα2-6Galα1)2-4Neu5AcαProNHCbz], the Km [1] was 230 ± 40 µM and the kcat [1] was 11.9 ± 0.5 s⁻¹.
With [N-]=[N+]=N[C@H](C=O)[C@@H](O)[C@H](O)[C@H](O)CO [Man2N3, 2-azido-2-deoxy-mannose] the “Percentage conversion (%) CMP-Sialic acid” value (NmCSS and PmAldolase) was 77 ± 1 ^b % and the “Percentage conversion (%) Transferase Reaction” value [2] was 0%.
For CC(=O)N[C@H]1[C@H]([C@H](O)[C@H](O)CO)O[C@@](OC[C@H]2O[C@H](O[C@H]3C[C@](OC[C@H]4O[C@H](O[C@H]5C[C@](OC[C@H]6O[C@H](O[C@H]7C[C@](OCCCNC(=O)OCc8ccccc8)(C(=O)O)O[C@@H]([C@H](O)[C@H](O)CO)[C@@H]7NC(C)=O)[C@H](O)[C@@H](O)[C@H]6O)(C(=O)O)O[C@@H]([C@H](O)[C@H](O)CO)[C@@H]5NC(C)=O)[C@H](O)[C@@H](O)[C@H]4O)(C(=O)O)O[C@@H]([C@H](O)[C@H](O)CO)[C@@H]3NC(C)=O)[C@H](O)[C@@H](O)[C@H]2O)(C(=O)O)C[C@@H]1O[C@H]1O[C@H](CO)[C@H](O)[C@H](O)[C@H]1O [G8, Galα1(-4Neu5Acα2-6Galα1)3-4Neu5AcαProNHCbz], the Km [1] was 250 ± 40 µM and the kcat [1] was 10.3 ± 0.5 s⁻¹.
CC(=O)N[C@@H]1C(O)O[C@H](CN=[N+]=[N-])[C@@H](O)[C@@H]1O (stereo partly shown) [ManNAc6N3, 6-azido-6-deoxy-N-acetylmannosamine] was tested, and the “Percentage conversion (%) CMP-Sialic acid” value (NmCSS and PmAldolase) was 91 ± 10 ^b %.
In the case of Neu5Ac9N3α2-6Galα1-4Neu5AcαProNHCbz, the Product [3] is reported as “√”.
In the case of Leg5,7Ac2α2-3Galβ1-3GalNAcβProN3, the Product [3] is reported as “Not Detected”.
With CC(=O)N[C@H]1[C@H]([C@H](O)[C@H](O)CO)O[C@](OP(=O)(O)OC[C@H]2O[C@@H](n3ccc(N)nc3=O)[C@H](O)[C@@H]2O)(C(=O)O)C[C@@H]1O [CMP-Neu5Ac, cytidine-5′-monophosphate Neu5Ac] the “Percentage conversion (%)” value ([4]; 11 μg/mL NmSiaDW, 10 min) was 0% and the “Percentage conversion (%)” value ([4]; 0.66 mg/mL NmSiaDW, 10 h) was 0%.
For O=C(O)[C@H]1O[C@H](OP(=O)(O)OP(=O)(O)OC[C@H]2O[C@@H](n3ccc(=O)[nH]c3=O)[C@H](O)[C@@H]2O)[C@H](O)[C@@H](O)[C@@H]1O [UDP-GlcA], the “Percentage conversion (%)” value ([4]; 11 μg/mL NmSiaDW, 10 min) was 0% and the “Percentage conversion (%)” value ([4]; 0.66 mg/mL NmSiaDW, 10 h) was 0%.
With CC(=O)NC[C@@H](O)[C@@H](O)[C@H](O)[C@@H](C=O)NC(C)=O [ManNAc6NAc, 6-N-acetyl-6-deoxy-N-acetylmannosamine] the “Percentage conversion (%) CMP-Sialic acid” value (NmCSS and PmAldolase) was 87 ± 2 ^b % and the “Percentage conversion (%) Transferase Reaction” value [2] was 0%.
In the case of CC(=O)NC1C(O)CC(OCC2OC(OCCCN)C(O)C(O)C2O)(C(=O)O)OC1C(O)C(O)CO (stereo not shown) [Neu5Acα2-6GalβProNH2], the Product [3] is reported as “√”.
Compound CC(=O)N[C@H]1[C@H]([C@H](O)[C@H](O)CO)O[C@@](OC[C@H]2O[C@H](O[C@H]3C[C@](OCCCNC(=O)OCc4ccccc4)(C(=O)O)O[C@@H]([C@H](O)[C@H](O)CO)[C@@H]3NC(C)=O)[C@H](O)[C@@H](O)[C@H]2O)(C(=O)O)C[C@@H]1O[C@H]1O[C@H](CO)[C@H](O)[C@H](O)[C@H]1O [G4, Galα1-4Neu5Acα2-6Galα1-4Neu5AcαProNHCbz] has a kcat [1] of 23.1 ± 1.1 s⁻¹.
In the case of O=C(CO)N[C@H]1[C@H]([C@H](O)[C@H](O)CO)OC(O)(C(=O)O)C[C@@H]1O (stereo partly shown) [Neu5Gc, N-glycolylneuraminic acid], the “Percentage conversion (%) CMP-Sialic acid” value (NmCSS) is reported as 90 ± 2 ^a % and the “Percentage conversion (%) Transferase Reaction” value [2] is reported as 47 ± 3% and 88 ± 3%.
In the case of CC(=O)N[C@@H]1[C@@H](OP(=O)(O)OP(=O)(O)OC[C@H]2O[C@@H](n3ccc(=O)[nH]c3=O)[C@H](O)[C@@H]2O)O[C@H](CO)[C@@H](O)[C@@H]1O [UDP-ManNAc], the “Percentage conversion (%)” value ([4]; 11 μg/mL NmSiaDW, 10 min) is reported as 0% and the “Percentage conversion (%)” value ([4]; 0.66 mg/mL NmSiaDW, 10 h) is reported as 0%.
[N-]=[N+]=NCC(=O)N[C@@H]1C(O)O[C@H](CO)[C@@H](O)[C@@H]1O (stereo partly shown) [ManNAz, N-azidoacetylmannosamine] was tested, and the “Percentage conversion (%) CMP-Sialic acid” value (NmCSS and PmAldolase) was “Quantitative ^b”.
With C[C@@H]1O[C@H](OP(=O)(O)OP(=O)(O)OC[C@H]2O[C@@H](n3cnc4c(=O)[nH]c(N)nc43)[C@H](O)[C@@H]2O)[C@@H](O)[C@H](O)[C@@H]1O [GDP-Fucose] the “Percentage conversion (%)” value ([4]; 11 μg/mL NmSiaDW, 10 min) was 0% and the “Percentage conversion (%)” value ([4]; 0.66 mg/mL NmSiaDW, 10 h) was 0%.
With CC(=O)N[C@H]1[C@H]([C@H](O)[C@H](O)CO)O[C@@](OCCCNC(=O)OCc2ccccc2)(C(=O)O)C[C@@H]1O[C@H]1O[C@H](CO[C@]2(C(=O)O)C[C@H](O[C@H]3O[C@H](CO[C@]4(C(=O)O)C[C@H](O[C@H]5O[C@H](CO[C@]6(C(=O)O)C[C@H](O)[C@@H](NC(C)=O)[C@H]([C@H](O)[C@H](O)CO)O6)[C@H](O)[C@H](O)[C@H]5O)[C@@H](NC(C)=O)[C@H]([C@H](O)[C@H](O)CO)O4)[C@H](O)[C@H](O)[C@H]3O)[C@@H](NC(C)=O)[C@H]([C@H](O)[C@H](O)CO)O2)[C@H](O)[C@H](O)[C@H]1O [S7, Neu5Acα2(-6Galα1-4Neu5Acα2)3-ProNHCbz] the Km [5] was 70 ± 10 µM and the kcat [5] was 5.5 ± 0.2 s⁻¹.
With CC(=O)NC1C(OCCCCl)OC(CO)C(O)C1OC1OC(CO)C(O)C(OC2(C(=O)O)CC(O)C(N=[N+]=[N-])C(C(N=[N+]=[N-])C(C)O)O2)C1O (stereo not drawn) [Leg5,7diN3α2-3Galβ1-3GalNAcβProCl] the Product [3] was “√”.
For CC(=O)N[C@H]1[C@@H](OP(=O)(O)OP(=O)(O)OC[C@H]2O[C@@H](n3ccc(=O)[nH]c3=O)[C@H](O)[C@@H]2O)O[C@H](CO)[C@H](O)[C@@H]1O [UDP-GalNAc], the “Percentage conversion (%)” value ([4]; 11 μg/mL NmSiaDW, 10 min) was 0%, the “Percentage conversion (%)” value ([4]; 0.66 mg/mL NmSiaDW, 10 h) was 1.9 ± 0.2% and the “donor substrate quality in words” value ([4]; compared to UDP-Gal, acceptor S3) was “tolerated as poor donor substrate”.
O=C(O)C(=O)C[C@H](O)[C@@H](O)[C@@H](O)[C@H](O)[C@H](O)CO [Kdn, 2-keto-3-deoxynonulosonic acid] was tested, and the “Percentage conversion (%) CMP-Sialic acid” value (NmCSS) was “Quantitative ^a”.
In the case of CO[C@H](CO)[C@@H](O)[C@@H]1OC(O)(C(=O)O)C[C@H](O)[C@H]1NC(C)=O (stereo partly shown) [Neu5Ac8OMe, 8-O-methyl-N-acetylneuraminic acid], the “Percentage conversion (%) CMP-Sialic acid” value (NmCSS) is reported as 79 ± 1 ^a %.
CC(=O)NC1C(O)CC(OC2C(O)C(CO)OC(OC3C(O)C(CO)OC(OCCCN=[N+]=[N-])C3NC(C)=O)C2O)(C(=O)O)OC1C(O)C(O)CO (stereo not shown) [Neu5Acα2-3Galβ1-3GalNAcβProN3] was tested, and the Product [3] was “√” and the “acceptor substrate suitability in words” value [3] was “could also tolerate”.
In the case of O=C(O)[C@H]1O[C@H](OP(=O)(O)OP(=O)(O)OC[C@H]2O[C@@H](n3ccc(=O)[nH]c3=O)[C@H](O)[C@@H]2O)[C@H](O)[C@@H](O)[C@H]1O [UDP-GalA], the “Percentage conversion (%)” value ([4]; 11 μg/mL NmSiaDW, 10 min) is reported as 0% and the “Percentage conversion (%)” value ([4]; 0.66 mg/mL NmSiaDW, 10 h) is reported as <1%.
For CC(=O)N[C@H]1[C@H]([C@H](O)[C@H](O)COC(C)=O)OC(O)(C(=O)O)C[C@@H]1O (stereo partly shown) [Neu5,9Ac, 9-O-acetyl-N-acetylneuraminic acid], the “Percentage conversion (%) CMP-Sialic acid” value (NmCSS) was 61 ± 2 ^a % and the “Percentage conversion (%) Transferase Reaction” value [2] was 0%.
With CC(=O)N[C@H]1[C@H]([C@H](O)[C@H](O)CO)OC(O)(C(=O)O)C[C@@H]1O (stereo partly shown) [Neu5Ac, N-acetylneuraminic acid] the “Percentage conversion (%) CMP-Sialic acid” value (NmCSS) was “Quantitative ^a”.
Neu5Ac7N3α2-6Galα1-4Neu5AcαProNHCbz was tested, and the Product [3] was “√”.
CC(=O)N[C@H]1[C@H]([C@H](O)[C@H](O)CO)OC(OC[C@H]2O[C@@H](Oc3ccc([N+](=O)[O-])cc3)[C@H](O)[C@@H](O)[C@H]2O)(C(=O)O)C[C@@H]1O (stereo partly shown) [Neu5Acα2-6GalβpNP] was tested, and the Product [3] was “√”.
CC(=O)N[C@H]1[C@@H](OP(=O)(O)OP(=O)(O)OC[C@H]2O[C@@H](n3ccc(=O)[nH]c3=O)[C@H](O)[C@@H]2O)O[C@H](CO)[C@@H](O)[C@@H]1O [UDP-GlcNAc] was tested, and the “Percentage conversion (%)” value ([4]; 11 μg/mL NmSiaDW, 10 min) was 0% and the “Percentage conversion (%)” value ([4]; 0.66 mg/mL NmSiaDW, 10 h) was 0%.
With CC(=O)N[C@H]1[C@H]([C@H](O)[C@H](O)CO)OC(O)(C(=O)O)C[C@@H]1OC(C)=O (stereo partly shown) [Neu4,5Ac, 4-O-acetyl-N-acetylneuraminic acid] the “Percentage conversion (%) CMP-Sialic acid” value (NmCSS) was 53 ± 1 ^a % and the “Percentage conversion (%) Transferase Reaction” value [2] was 0%.
